ChEMBL document CHEMBL4396863, “Amyloid-Binding Alcohol Dehydrogenase (ABAD) Inhibitors for the Treatment of Alzheimer's Disease” (J Med Chem, 2019)

Experiments:
[1] = Inhibition of ABAD (unknown origin); design: species or system Homo sapiens
[2] = Drug uptake in C57BL/6 mouse brain at 10 mg/kg by LC-MS/MS analysis; assay type: ADME, organism-based; details: in vivo
[3] = Cmax in C57BL/6 mouse at 10 mg/kg by LC-MS/MS analysis; assay type: ADME, organism-based; design: dose 10 mg/kg; details: in vivo
HEK293 [4] = experiment: Displacement of radiolabeled estradiol ABAD (unknown origin) transfected in HEK293 cells at 100 uM relative to control; assay type: cell-based; details: Homo sapiens
HEK293 [5] = experiment: Displacement of radiolabeled estradiol ABAD (unknown origin) transfected in HEK293 cells at 300 uM relative to control; assay type: cell-based; details: Homo sapiens
[6] = Displacement of radiolabeled estradiol ABAD (unknown origin) transfected in HEK293 cells; assay type: cell-based, Homo sapiens

Row | IC50 [1] [nM] | Structure (SMILES) | further results
1 | 1890 | O=C(Nc1ccc(O)c(Cl)c1)Nc1nc2ccc(F)cc2s1 | 
2 | 3060 | COc1ccc(NC(=N)Nc2nc3ccc(OC)cc3s2)cc1 | 
3 | 1670 | O=C(Nc1ccc(O)c(Cl)c1)Nc1nc2ccc(Cl)cc2s1 | 
4 | 92 | O=C([C@H](c1ccccc1)n1cnc2[nH]ncc2c1=S)N1CCCCCC1 | 
5 | 81 | O=C(C(c1ccccc1)n1cnc2[nH]ncc2c1=S)N1CCC(O)(c2ccccc2)CC1 (stereo unspecified) | 
6 | 93 | CCN(CC)C(=O)C(c1ccccc1)n1cnc2[nH]ncc2c1=S (stereo unspecified) | 
7 | 82 | O=C(C(c1ccccc1)n1cnc2[nH]ncc2c1=S)N1CCC(O)(c2ccc(Br)cc2)CC1 (stereo unspecified) | 
8 | 51 | O=C(C(c1cccc(O)c1)n1cnc2[nH]ncc2c1=S)N1CCCCCC1 (stereo unspecified) | 
9 | 96 | O=C(C(c1ccccc1)n1cnc2[nH]ncc2c1=S)N1CCCCCCC1 (stereo unspecified) | 
10 |  | COc1cccc(CN2CCN(C[C@@]3(O)CC[C@@]4(C)[C@@H](CC[C@@H]5[C@@H]4CC[C@]4(C)C(=O)CC[C@@H]54)C3)CC2)c1 | inhibition (HEK293 [4]): 4.7%; inhibition (HEK293 [5]): 30%; IC50 [6]: 550 nM
11 | 71 | CCCCC1(O)CCN(C(=O)C(c2ccccc2)n2cnc3[nH]ncc3c2=S)CC1 (stereo unspecified) | 

Row | Structure (SMILES) | IC50 [1] [nM] | further results
12 | COc1ccc2nc(N[C@@H](c3ccc(O)cc3)P(=O)(OC)OC)sc2c1 | 52700 | Drug uptake [2]: 4 to 50 ng/mL; Cmax [3]: 4.8 ng/mL
